In publication PMC12892976, “Alkylation-based optimization of antifungal FPPS inhibitors yields a potent, broad-spectrum lipophilic zoledronate derivative” (mBio, 2025):
In brackets after ≈: the same amount, converted by molar mass.

Columns and labels:
[1] = tested on: Nannizzia nana; experiment: checkerboard drug interaction (FICI, MICc); type: cell-based;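 also: simplified diagonal checkerboard screen pairing antifungals with FPPS inhibitors, FICI calculated under the Loewe additivity model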
Description: (§1) Drug interactions between antifungals and FPPS inhibitors were investigated using a simplified checkerboard diagonal screening method ([45]). […] FICIs were determined according to the Loewe additivity model ([17]).

[2] = tested on: Pichia kudriavzevii; experiment: checkerboard drug interaction (FICI, MICc); type: cell-based;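 also: antifungal plus FPPS inhibitor interactions tested in a simplified diagonal checkerboard screen, with FICI calculated under the Loewe additivity model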
Description: as §1

[3] = tested on: Epidermophyton floccosum; experiment: MIC broth microdilution (CLSI); type: cell-based; conditions: Epidermophyon floccosum R-113
Description: (§2) Antifungal susceptibility was determined by broth microdilution according to the CLSI guidelines described in M27-Ed4 ([16]).

[4] = tested on: Candida auris; experiment: MIC broth microdilution (CLSI); type: cell-based; conditions: Candida auris CDC-0384
Description: as §2

[5] = tested on: Trichophyton tonsurans; experiment: MIC broth microdilution (CLSI); conditions: Trichophyton tonsurans R-168
Description: as §2

[6] = tested on: Aspergillus lentulus; experiment: checkerboard drug interaction (FICI, MICc); type: cell-based;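 also: simplified diagonal checkerboard screen pairing antifungals with FPPS inhibitors, with the interaction index calculated under the Loewe additivity model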
Description: as §1

[7] = tested on: Aspergillus felis; experiment: MIC broth microdilution (CLSI); type: cell-based; conditions: Aspergillus felis IHE87256683D6
Description: as §2

[8] = tested on: Mucor circinelloides; experiment: checkerboard drug interaction (FICI, MICc); type: cell-based;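 also: simplified diagonal checkerboard screen pairing antifungals with FPPS inhibitors, FICI calculated under the Loewe additivity model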
Description: as §1

[9] = tested on: Candida tropicalis; experiment: MIC broth microdilution (CLSI); type: cell-based; conditions: Candida tropicalis M230640
Description: as §2

[10] = tested on: Aspergillus udagawae; experiment: MIC broth microdilution (CLSI); type: cell-based; conditions: Aspergillus udagawae 8G81
Description: as §2

[11] = tested on: Microsporum canis; experiment: checkerboard drug interaction (FICI, MICc); type: cell-based;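 also: simplified diagonal checkerboard screen pairing antifungals with FPPS inhibitors, FICI calculated under the Loewe additivity model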
Description: as §1

[12] = tested on: Candida parapsilosis; experiment: MIC broth microdilution (CLSI); type: cell-based; conditions: Candida parapsilosis ATCC 22018
Description: (§3) Antifungal susceptibility was determined by broth microdilution according to the CLSI guidelines described in M27-Ed4 ([16]). […] MFC was determined by back-plating drug-treated cultures from MIC broths onto SDA plates. The MFC was defined as the lowest concentration from which no colonies could be cultured.

[13] = tested on: Fusarium oxysporum; experiment: MIC broth microdilution (CLSI); type: cell-based; conditions: Fusarium oxysporum 07-200-3012
Description: as §2

[14] = tested on: Cryptococcus deneoformans; experiment: MIC broth microdilution (CLSI); type: cell-based; conditions: Cryptococcus deneoformans JEC21
Description: as §2

[15] = tested on: Lomentospora prolificans; experiment: MIC broth microdilution (CLSI); type: cell-based; conditions: Lomentospora prolificans 80-16-101-2445
Description: as §2

[16] = tested on: Candida auris; experiment: checkerboard drug interaction (FICI, MICc); type: cell-based;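 also: simplified diagonal checkerboard screen pairing antifungals with FPPS inhibitors, with FICI computed under the Loewe additivity model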
Description: as §1

[17] = tested on: Paraphyton cookei; experiment: MIC broth microdilution (CLSI); type: cell-based; conditions: Paraphyton cookei R-639
Description: as §2

[18] = tested on: Rhizopus oryzae; experiment: checkerboard drug interaction (FICI, MICc); type: cell-based;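 also: simplified diagonal checkerboard screen pairing antifungals with FPPS inhibitors, FICI calculated under the Loewe additivity model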
Description: as §1

[19] = tested on: Lomentospora prolificans; experiment: checkerboard drug interaction (FICI, MICc)
Description: as §1

[20] = tested on: Microsporum canis; experiment: MIC broth microdilution (CLSI); conditions: Microsporum canis R-232
Description: as §2

[21] = tested on: Candida tropicalis; experiment: checkerboard drug interaction (FICI, MICc); type: cell-based;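 also: simplified diagonal checkerboard screen of antifungal plus FPPS inhibitor combinations, with FICI computed by the Loewe additivity model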
Description: as §1

[22] = tested on: Candida dubliniensis; experiment: MIC broth microdilution (CLSI); type: cell-based; conditions: Candida dubliniensis M230642
Description: as §2

[23] = tested on: Candida dubliniensis; experiment: checkerboard drug interaction (FICI, MICc); type: cell-based
Description: as §1

[24] = tested on: Nannizzia gypsea; experiment: checkerboard drug interaction (FICI, MICc);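 also: simplified diagonal checkerboard screen pairing antifungals with FPPS inhibitors, FICI derived using the Loewe additivity model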
Description: as §1

[25] = tested on: Cryptococcus tetragattii; experiment: MIC broth microdilution (CLSI); type: cell-based; conditions: Cryptococcus tetragattii WM779
Description: as §2

[26] = tested on: Cryptococcus bacillisporus; experiment: checkerboard drug interaction (FICI, MICc); type: cell-based;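 also: interaction of antifungals with FPPS inhibitors assessed by a simplified diagonal checkerboard screen, with FICI computed under the Loewe additivity model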
Description: as §1

[27] = tested on: Fusarium solani; experiment: checkerboard drug interaction (FICI, MICc); type: cell-based;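 also: simplified diagonal checkerboard screen pairing antifungals with FPPS inhibitors, FICI derived under the Loewe additivity model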
Description: as §1

[28] = tested on: Aspergillus terreus; experiment: checkerboard drug interaction (FICI, MICc); type: cell-based;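 also: simplified diagonal checkerboard screen pairing antifungals with FPPS inhibitors, FICI derived by the Loewe additivity model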
Description: as §1

[29] = tested on: Nannizzia nana; experiment: MIC broth microdilution (CLSI); type: cell-based; conditions: Nannizzia nana R-133
Description: as §2

[30] = tested on: Aspergillus parafelis; experiment: checkerboard drug interaction (FICI, MICc)
Description: as §1

[31] = tested on: Aspergillus felis; experiment: checkerboard drug interaction (FICI, MICc); type: cell-based
Description: as §1

[32] = tested on: Paraphyton cookei; experiment: checkerboard drug interaction (FICI, MICc);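 also: simplified diagonal checkerboard screen pairing an antifungal with an FPPS inhibitor, FICI computed under the Loewe additivity model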
Description: as §1

[33] = tested on: Cryptococcus tetragattii; experiment: checkerboard drug interaction (FICI, MICc); type: cell-based;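 also: simplified diagonal checkerboard screen pairing antifungals with FPPS inhibitors, with FICI calculated under the Loewe additivity model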
Description: as §1

[34] = tested on: Pichia kudriavzevii; experiment: MIC broth microdilution (CLSI); type: cell-based; conditions: Pichia kudriavzavii ATCC 6258
Description: as §3

[35] = tested on: Aspergillus udagawae; experiment: checkerboard drug interaction (FICI, MICc); type: cell-based;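 also: simplified diagonal checkerboard screen pairing antifungals with FPPS inhibitors, FICI calculated using the Loewe additivity model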
Description: as §1

Compound: CCC(C)n1ncn(-c2ccc(N3CCN(c4ccc(OCC5COC(Cn6cncn6)(c6ccc(Cl)cc6Cl)O5)cc4)CC3)cc2)c1=O (stereo not drawn) [ITR, itraconazole]
- antifungal MICc ([1]; in combination with 10-ZOL): 0.25
- antifungal MICc ([1]; in combination with ZOL): 0.13
- antifungal MICc ([2]; in combination with 10-ZOL): 1
- antifungal MICc ([2]; in combination with ZOL): 0.25
- MIC / MEC [3]: 1 µg/mL (≈ 1.42 µM)
- MIC / MEC [4]: 2 µg/mL (≈ 2.83 µM)
- MIC / MEC [5]: 1 µg/mL (≈ 1.42 µM)
- antifungal MICc ([6]; in combination with 10-ZOL): 0.25
- antifungal MICc ([6]; in combination with ZOL): 0.5
- MIC / MEC [7]: 2 µg/mL (≈ 2.83 µM)
- antifungal MICc ([8]; in combination with 10-ZOL): 0.25
- antifungal MICc ([8]; in combination with ZOL): 0.06
- MIC / MEC [9]: 0.25 µg/mL (≈ 0.354 µM)
- MIC / MEC [10]: 1 µg/mL (≈ 1.42 µM)
- antifungal MICc ([11]; in combination with 10-ZOL): 0.063
- antifungal MICc ([11]; in combination with ZOL): 0.25
- MIC / MEC [12]: 0.25 µg/mL (≈ 0.354 µM)
- MIC / MEC [13]: 4 µg/mL (≈ 5.67 µM)
- MIC / MEC [14]: 0.06 µg/mL (≈ 0.085 µM)
- MIC / MEC [15]: 4 µg/mL (≈ 5.67 µM)
- antifungal MICc ([16]; in combination with 10-ZOL): 1
- antifungal MICc ([16]; in combination with ZOL): 1
- MIC / MEC [17]: 2 µg/mL (≈ 2.83 µM)
- antifungal MICc ([18]; in combination with 10-ZOL): 0.125
- antifungal MICc ([18]; in combination with ZOL): 2
- antifungal MICc ([19]; in combination with 10-ZOL): 1
- antifungal MICc ([19]; in combination with ZOL): 2
- MIC / MEC [20]: 0.5 µg/mL (≈ 0.709 µM)
- antifungal MICc ([21]; in combination with 10-ZOL): 0.125
- antifungal MICc ([21]; in combination with ZOL): 0.062
- MIC / MEC [22]: 0.13 µg/mL (≈ 0.184 µM)
- antifungal MICc ([23]; in combination with 10-ZOL): 0.033
- antifungal MICc ([23]; in combination with ZOL): 0.03125
- antifungal MICc ([24]; in combination with 10-ZOL): 2
- antifungal MICc ([24]; in combination with ZOL): 0.5
- MIC / MEC [25]: 0.5 µg/mL (≈ 0.709 µM)
- antifungal MICc ([26]; in combination with 10-ZOL): 0.033
- antifungal MICc ([26]; in combination with ZOL): 0.0625
- antifungal MICc ([27]; in combination with 10-ZOL): 1
- antifungal MICc ([27]; in combination with ZOL): 0.5
- antifungal MICc ([28]; in combination with 10-ZOL): 0.25
- antifungal MICc ([28]; in combination with ZOL): 0.13
- MIC / MEC [29]: 0.25 µg/mL (≈ 0.354 µM)
- antifungal MICc ([30]; in combination with 10-ZOL): 2
- antifungal MICc ([30]; in combination with ZOL): 8
- antifungal MICc ([31]; in combination with 10-ZOL): 0.5
- antifungal MICc ([31]; in combination with ZOL): 1
- antifungal MICc ([32]; in combination with 10-ZOL): 0.063
- antifungal MICc ([32]; in combination with ZOL): 1
- antifungal MICc ([33]; in combination with 10-ZOL): 0.25
- antifungal MICc ([33]; in combination with ZOL): 1
- MIC / MEC [34]: 1 µg/mL (≈ 1.42 µM)
- antifungal MICc ([35]; in combination with 10-ZOL): 0.25
- antifungal MICc ([35]; in combination with ZOL): 0.5
